Where “and” joins values, the source holds several entries; their conditions need not be identical. Identical values can stand only once. Counter-ions that a name gives are not always drawn. Like-named read-outs stand apart in the source and are kept apart here.
Columns and labels:
Bioavailability = type: in vivo
Aqueous solubility = type: physicochemical
Experimental: Solubility was measured by stirring […] in water (10 mL) of amorphous L-708 at room temperature. At 48 hrs. 1 mL of the suspension was drawn and centrifuged. The supernatant was diluted and content of amorphous L-708 was measured by both U.V. spectrophotometry and by HPLC. This gave a concentration of 55 mg/mL.

[1] = Stability of the solid on storage, followed by water solubility; type: physicochemical; conditions: solid stored three months at 30°C and 60°C at ambient humidity and at 30°C/79% relative humidity
Experimental: (§1) No change in water solubility has been observed even when stored for three months at 30°C and 60°C at ambient humidity and at 30°C/79% relative humidity.

[2] = Stability to chemical decomposition; type: physicochemical; conditions: in the solid form and in aqueous solution
Experimental: as §1

[3] = Stability of saturated aqueous solutions against precipitation of the crystalline form; type: physicochemical; conditions: do not readily precipitate the crystalline form even when seeded with the crystalline allotrope

solubility (Aqueous solubility; de-ionized water, in de-ionized water at 25°C, read-out: solubility) [mg/mL]	solubility at 48 h (Aqueous solubility; water, 100 mg/mL stirred in water (10 mL) at room temperature, 48 hrs, U.V. spectrophotometry and HPLC, read-out: Solubility (concentration in supernatant)) [mg/mL]	solubility (Aqueous solubility; water, not tested higher, read-out: Solubility in water)	change in water solubility on storage [1]	stability to chemical decomposition [2]	stability of saturated aqueous solutions [3]	oral bioavailability (Bioavailability; oral)	solubility (Aqueous solubility; water, crystalline sodium salt, read-out: aqueous solubility) [mg/mL]	Structure (SMILES)	bioavailability (Bioavailability; compared with L-708 Na⁺ salt)
55	55	≥ 3000 µg/mL and ≥ 5000 µM	No change	highly stable to chemical decomposition	highly stable			CC(C)(C)Sc1c(CC(C)(C)C(=O)O)n(Cc2ccc(Cl)cc2)c2ccc(OCc3ccc4ccccc4n3)cc12 [amorphous L-708, Amorphous 3-[N-(p-chlorobenzyl)-3-(t-butylthio)-5-(quinolin-2-ylmethoxy)indol-2-yl]-2,2-dimethylpropanoic acid, sodium salt]	much more bioavailable than L-708 Na⁺ salt
						low oral bioavailability	0.005 to 0.03	CC(C)(C)Sc1c(CC(C)(C)C(=O)O)n(Cc2ccc(Cl)cc2)c2ccc(OCc3ccc4ccccc4n3)cc12 [L-708 Na⁺ salt, Crystalline 3-[N-(p-chlorobenzyl)-3-(t-butylthio)-5-(quinolin-2-ylmethoxy)indol-2-yl]-2.2-dimethylpropanoic acid, sodium salt, reference compound]	

Reference: EP0542355A1, “Amorphous (Quinolin-2-ylmethoxy)indoles as leukotriene antagonists” (MERCK FROSST CANADA INC., priority 1991, dated 1993)
